For 2 molecules, inhibition and Activity results are on record in ChEMBL document CHEMBL6103644, “Efficient and Selective Biosynthesis of a Precursor-Directed FK506 Analogue: Paving the Way for Click Chemistry” (J Nat Prod, 2025).

The subject of data set [1] is CD4+ T cell. The data set is described as follows: Immunosuppressive activity in C57BL/6 mouse CD4+ T cells co-cultured with allogeneic bone marrow-derived BALB/c mouse dendritic cells assessed as inhibition of CD4+ T cell proliferation at 1 nM incubated for 4 days by CellTrace Violet staining based flow cytometry. In kind it is functional. To be noted: time 4.0 day. On the technique in general: In flow cytometry, cells or beads pass a laser one at a time.

Data set [2] can be described thus: Cytotoxicity against C57BL/6 mouse CD4+ T cells assessed as increase in cell death at 0.5 to 100 nM incubated for 4 days by Live/Dead staining based flow cytometry. In kind it is toxicity. To be noted: 96 h, 0.1 µM, dose 0.5-100 nM, time 4 day.
Data set [3] is described as follows: Cytotoxicity against C57BL/6 mouse CD4+ T cells assessed as increase in cell death at 5 nM incubated for 4 days by Live/Dead staining based flow cytometry. In kind it is toxicity. To be noted: 96 h, 0.005 µM, time 4 day.
Data set [4] can be described thus: Cytotoxicity against C57BL/6 mouse CD4+ T cells assessed as increase in cell death at >10 nM incubated for 4 days by Live/Dead staining based flow cytometry. Type of data set: toxicity. To be noted: 96 h, 0.01 µM, time 4 day.
For data set [5], the system named is CD4+ T cell. The data set is described as follows: Immunosuppressive activity in C57BL/6 mouse CD4+ T cells co-cultured with allogeneic bone marrow-derived BALB/c mouse dendritic cells assessed as reduction in CD4+ T cell numbers at cell cycle 4 at 5 nM incubated for 4 days by CellTrace Violet staining based flow cytometry. In kind it is functional. The conditions noted are these: time 4.0 day.

Each structure is given as a SMILES string. Activity calls are given as the source filed them. The rule behind the calls is not given here.

On to `C=CC[C@@H]1/C=C(\C)C[C@H](C)C[C@H](OC)[C@H]2O[C@@](O)(C(=O)C(=O)N3CCCC[C@H]3C(=O)O[C@H](/C(C)=C/[C@@H]3CC[C@@H](O)[C@H](OC)C3)[C@H](C)[C@@H](O)CC1=O)[C@H](C)C[C@@H]2OC` [TACROLIMUS ANHYDROUS], for which the inhibition result with CD4+ T cell [1] was “Active”. Also, in data set [2], the Activity entry is recorded as “Toxic”.
In the case of `C#CC[C@@H]1/C=C(\C)C[C@H](C)C[C@H](OC)[C@H]2O[C@@](O)(C(=O)C(=O)N3CCCC[C@H]3C(=O)O[C@H](/C(C)=C/[C@@H]3CC[C@@H](O)[C@H](OC)C3)[C@H](C)[C@@H](O)CC1=O)[C@H](C)C[C@@H]2OC`, the results for the Activity result in data set [3] and in data set [4] were “Non-toxic” and “Toxic”, respectively. Besides, the result in the data set with CD4+ T cell [5] was Active.
